The source of these data is patent US20160367622A1, “AGONISTS OF GUANYLATE CYCLASE USEFUL FOR THE TREATMENT OF OPIOID INDUCED DYSFUNCTIONS” (priority 2013, published 2016).

The subject of one test is T84 cells monolayer. The conditions noted are these: for effect on SP-333 stimulation of Isc: T84 cells monolayer, opioid either pre or post SP-333 treatment; for effect on 1 μM SP-333-stimulated Isc: apical pre-treatment with 5 μM opioid for 5 min.
Another test concerns rat jejunum tissue. The conditions noted are these: for effect of inhibitor on SP-333-stimulated Isc / effect on 1 μM SP-333-stimulated Isc: rat jejunum; for effect of inhibitor on SP-333-stimulated Isc: inhibitor pretreatment 5 min, then 1 μM SP-333; for effect on SP-333 stimulation of Isc: rat jejunum tissue, opioid either pre or post SP-333 treatment; for effect on 1 μM SP-333-stimulated Isc: apical pre-treatment with 5 μM opioid for 5 min.

Test [1] concerns female Sprague-Dawley rats. The test can be described thus: methadone-induced delay in rat GI transit (charcoal meal). The class given is in vivo. On the procedure: (§1) Animals: All study procedures were conducted under a study outline approved by the Institutional Animal Care and Use Committee of MB Research Labs (Spinnerstown, Pa.) or Lampire Biological Laboratories (Pipersville, Pa.). Seven to eight week old female Sprague-Dawley rats [Crl:CD(SD)], weighing between ˜180-210 grams, were obtained from Charles River Laboratories and allowed to acclimate for a week. Animals were maintained on a 12 hour light-dark cycle. For intestinal tissue collection and evaluation of GI transit, rats were fasted for at least 18 hours before the experiment, with free access to water.
(§2) The ability of opioids to delay GI transit in rats was tested by either administering 0 (vehicle) 0.25, 1 and 2.5 mg/kg of morphine or 0 (vehicle), 0.25, 2.5 and 5 mg/kg of methadone (1.5 ml/kg dose volume) by IP injection. Water served as vehicle control. Ten minutes later, a 2 mL charcoal meal consisting of 10% activated charcoal (Sigma-Aldrich, St. Louis, Mo.) and 10% gum Arabic (Sigma-Aldrich, St. Louis, Mo.) in water was administered via oral gavage. Rats were euthanized 10 min after the charcoal meal via IP injection of 150 mg/kg Beuthanasia-D solution (sodium pentobarbital, 390 mg/mL). The small intestine was removed and the total length from the pyloric sphincter to the ileocecal junction was recorded, as well as the distance traveled by the leading edge of the charcoal. Intestinal transit was determined by calculating the ratio (expressed as a percentage) of the distance between the pyloric sphincter and the leading edge of the charcoal to the distance between the pyloric sphincter and the ileocecal junction.
To evaluate the ability of SP-333 to reverse methadone induced delayed GI transit, animals were administered 2.5 mg/kg of methadone by IP injection. Ten minutes later, an oral gavage of 0 (vehicle), 0.1, 0.5, 2.5, 5 and 50 mg/kg of SP-333 (1.5 ml/kg dose volume) was administered followed immediately by a 2 mL oral gavage of the charcoal meal. Ten minutes after the charcoal meal, animals were euthanized and intestinal transit was calculated as described above.

Test [2] has as its system female Sprague-Dawley CD rats. Nature of the test: GI transit delay induced by repeated methadone administration in rats. Type of test: in vivo, rat. To be noted: after 16 doses (once daily; 7 doses at 5 mg/kg and 9 doses at 2.5 mg/kg). How it is done: The ability of SP-333 to alleviate GI transit delay induced by repeated methadone administration was also evaluated in the similar manner. Female Sprague-Dawley CD rats 7 to 8 weeks of age (n=7/group) received via IP injection 16 doses of methadone (once daily; 7 doses @ 5 mg/kg and 9 doses @ 2.5 mg/kg). Ten minutes following each methadone dose, each group received an oral gavage of vehicle, 2.5, and 5 mg/kg of SP-333. At the end of the dosing regimen, animals were fasted overnight and GI transit was evaluated as described above.

Test [3] has as its system female Sprague-Dawley CD rats. The test can be described thus: methadone-induced constipation in rats (fecal output). The conditions noted are these: for average number of fecal pellets over 4 h, lower compared to the vehicle group: light cycle. The class given is in vivo, rat. On the procedure:
To identify the methadone dose that induces constipation in rats, female Sprague-Dawley CD rats 7 to 8 weeks of age (n=6/group) were administered 0 (vehicle), 2.5, 5, and 7.5 mg/kg of methadone (1.5 ml/kg dose volume) by IP injection once a day for 5 days. Fecal pellets were collected at 4 h intervals during the light cycle and average number of pellets was recorded for each group during the course of the study following daily dose administrations of methadone.
To evaluate the ability of SP-333 to relieve methadone-induced constipation, female Sprague-Dawley CD rats 7 to 8 weeks of age (n=7/group) were administered 5 mg/kg of methadone (or vehicle) each day for 7 days via IP injection to induce constipation. Ten minutes following the IP dose each day, an oral gavage of 2.5, and 5 mg/kg of SP-333 or vehicle (buffer) was administered. Fecal pellets were collected at 4 h intervals during the light cycle and average number of pellets recorded for each group during the course of the study following daily administration of vehicle, methadone or combination of methadone and SP-333.

Test [4] concerns female Sprague-Dawley CD rats. Described as above. The class given is in vivo, rat.
Test [5] concerns female Sprague-Dawley rats. Nature of the test: morphine-induced delay in rat GI transit (charcoal meal). Type of test: in vivo. The conditions noted are these: for GI transit slowed compared to vehicle controls: rats. On the procedure:
as §1, §2
To evaluate the ability of SP-333 to reverse morphine induced delayed GI transit, animals were administered 2.5 mg/kg of morphine by IP injection followed immediately by oral gavage of 0 (vehicle), 0.5, 2.5, 5 and 50 mg/kg of SP-333 (1.5 ml/kg dose volume). Water served as vehicle control. Charcoal meal was administered ten minutes later and animals were euthanized ten minutes after the charcoal meal and intestinal transit was calculated as described above.

For test [6], the target named is guanylate cyclase-C (GC-C) on T84 cells (human (T84, human carcinoma cell line), UniProt P25092 24-1073). The test can be described thus: cell-based or functional assay.
In test [7] the target is T1, guanylate cyclase-C (GC-C) in rat jejunum (rat, UniProt P23897 23-1072).
T1 sequence (looked up): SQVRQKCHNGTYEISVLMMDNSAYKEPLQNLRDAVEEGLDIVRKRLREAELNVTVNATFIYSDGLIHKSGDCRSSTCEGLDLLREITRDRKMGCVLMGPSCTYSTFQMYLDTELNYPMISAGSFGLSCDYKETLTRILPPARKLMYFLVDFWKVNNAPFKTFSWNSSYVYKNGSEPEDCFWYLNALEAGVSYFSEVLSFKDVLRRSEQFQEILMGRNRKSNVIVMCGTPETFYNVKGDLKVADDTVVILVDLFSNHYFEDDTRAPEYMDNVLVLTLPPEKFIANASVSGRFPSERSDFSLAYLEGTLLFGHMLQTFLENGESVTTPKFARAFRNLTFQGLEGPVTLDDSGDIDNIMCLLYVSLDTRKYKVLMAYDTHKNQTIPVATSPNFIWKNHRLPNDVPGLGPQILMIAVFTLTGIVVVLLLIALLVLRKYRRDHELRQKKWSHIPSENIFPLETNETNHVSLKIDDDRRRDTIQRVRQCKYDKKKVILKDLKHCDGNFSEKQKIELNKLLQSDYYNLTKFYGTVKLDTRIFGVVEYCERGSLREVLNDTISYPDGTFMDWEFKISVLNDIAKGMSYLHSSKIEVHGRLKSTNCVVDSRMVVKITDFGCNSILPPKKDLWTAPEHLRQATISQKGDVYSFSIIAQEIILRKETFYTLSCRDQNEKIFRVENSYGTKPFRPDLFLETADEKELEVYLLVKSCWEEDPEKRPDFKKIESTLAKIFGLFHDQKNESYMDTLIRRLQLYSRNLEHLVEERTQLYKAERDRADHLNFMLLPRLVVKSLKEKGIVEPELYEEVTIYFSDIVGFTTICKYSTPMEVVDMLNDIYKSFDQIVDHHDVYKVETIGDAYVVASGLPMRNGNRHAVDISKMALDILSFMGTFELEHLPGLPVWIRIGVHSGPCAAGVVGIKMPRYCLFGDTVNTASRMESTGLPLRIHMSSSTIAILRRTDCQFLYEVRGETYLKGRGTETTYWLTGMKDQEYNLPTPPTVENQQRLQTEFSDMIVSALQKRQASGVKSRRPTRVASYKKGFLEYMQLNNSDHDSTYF
Nature of the test: cell-based or functional assay.

Positions of bridges follow the written chain, without caps; N, C: chain ends. Non-standard residues stand in square brackets, D forms with d. No end group written: not given here.

guanylate cyclase-C (GC-C) on T84 cells, sequence (P25092 24-1073): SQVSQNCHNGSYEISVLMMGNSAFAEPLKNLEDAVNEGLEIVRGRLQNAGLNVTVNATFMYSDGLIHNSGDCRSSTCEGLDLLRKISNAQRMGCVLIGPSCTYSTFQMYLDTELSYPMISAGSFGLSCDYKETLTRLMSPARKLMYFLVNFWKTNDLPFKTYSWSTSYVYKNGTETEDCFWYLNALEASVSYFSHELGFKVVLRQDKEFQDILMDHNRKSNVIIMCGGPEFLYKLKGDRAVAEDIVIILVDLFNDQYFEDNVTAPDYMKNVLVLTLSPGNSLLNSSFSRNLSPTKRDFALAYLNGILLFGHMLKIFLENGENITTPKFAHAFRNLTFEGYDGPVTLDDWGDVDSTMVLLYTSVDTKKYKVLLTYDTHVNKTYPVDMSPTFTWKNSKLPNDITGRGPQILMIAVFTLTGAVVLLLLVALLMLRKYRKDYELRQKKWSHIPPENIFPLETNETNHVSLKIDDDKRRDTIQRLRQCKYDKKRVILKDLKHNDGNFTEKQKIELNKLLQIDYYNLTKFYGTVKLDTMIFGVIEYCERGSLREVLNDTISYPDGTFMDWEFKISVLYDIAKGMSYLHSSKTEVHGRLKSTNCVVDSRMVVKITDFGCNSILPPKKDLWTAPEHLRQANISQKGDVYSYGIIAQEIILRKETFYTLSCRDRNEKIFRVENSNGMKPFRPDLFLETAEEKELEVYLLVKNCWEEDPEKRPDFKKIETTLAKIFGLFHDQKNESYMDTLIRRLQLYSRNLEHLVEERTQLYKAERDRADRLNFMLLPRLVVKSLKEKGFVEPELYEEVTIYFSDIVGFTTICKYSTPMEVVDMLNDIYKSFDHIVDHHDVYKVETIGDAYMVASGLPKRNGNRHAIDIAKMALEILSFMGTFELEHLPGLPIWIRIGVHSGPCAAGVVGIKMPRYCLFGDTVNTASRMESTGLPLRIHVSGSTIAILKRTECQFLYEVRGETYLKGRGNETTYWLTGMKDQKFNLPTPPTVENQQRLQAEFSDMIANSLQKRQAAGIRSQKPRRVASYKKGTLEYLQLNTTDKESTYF

As to `[Cl][Cd][Cl]` [CdCl2], the “decrease in SP-333-stimulated Isc” value in the test on T84 cells monolayer (T84 cells, 300 μM, 1 μM SP-333) is recorded as “No appreciable decrease”. In the test on rat jejunum tissue, the “effect of inhibitor on SP-333-stimulated Isc” value is “minimal effect”.
Consider `CCC(=O)C(CC(C)N(C)C)(c1ccccc1)c1ccccc1` (stereo not drawn) [methadone], for which the GI transit in test [1] (2.5 mg/kg methadone IP alone (vs 55% in vehicle treated)) is 28%; in test [1] (0.25, 2.5 and 5 mg/kg IP, rats), “statistically significant reduction in GI transit”. In addition, the “rat small intestine transit” value in test [2] is “significantly delayed rat small intestine transit”. The “average number of fecal pellets over 4 h, lower compared to the vehicle group” value in test [3] (2.5 mg/kg IP once daily for 5 days) turned out to be 29%; in test [3] (5 mg/kg IP once daily for 5 days), 77%; in test [3] (7.5 mg/kg IP once daily for 5 days) it was 54%; in test [4] (10 mg/kg IP once daily for 5 days, light cycle) it was 63%. The “average number of fecal pellets, less vs vehicle control” value in test [3] (methadone alone, 5.0 mg/kg IP daily 7 days then 2.5 mg on days 8-16) is on record as 82%. Moreover, the “effect on SP-333 stimulation of Isc” value with T84 cells monolayer and with rat jejunum tissue was “did not alter stimulation of Isc” in each case. Further, the “effect on 1 μM SP-333-stimulated Isc” value in the test with T84 cells monolayer (T84 cells) and with rat jejunum tissue was “no effect” in each case. In addition, the “effect on SP-333 mediated enhancement in Isc” value in the test with T84 cells monolayer (T84 monolayer, 1 μM SP-333 then opioid at 20 μM, FIG. 5B) is “inhibited”. Also, the “average number of fecal pellets” value in [4] (methadone alone 2.5 mg/kg IP once daily for 9 days) is “significant decrease in the average number of fecal pellets”.
For `CN1CC[C@]23c4c5ccc(O)c4O[C@H]2[C@@H](O)C=C[C@H]3[C@H]1C5` [morphine], the GI transit in test [5] (2.5 mg/kg morphine IP alone (vs 53% in vehicle treated)) was 23%. For the same molecule, the “GI transit slowed compared to vehicle controls” value in [5] (single dose 0.25 mg/kg IP) was 52%; in test [5] (single dose 1.0 mg/kg IP) it was 56%. Also, the “effect on SP-333 stimulation of Isc” value in the test with T84 cells monolayer and in the test on rat jejunum tissue was “did not alter stimulation of Isc” throughout. The “effect on 1 μM SP-333-stimulated Isc” value in the test with T84 cells monolayer (T84 cells) and in the test with rat jejunum tissue was “negligible effect” in each case.
Turning to `O=C(O)c1ccc(/C=C2\SC(=S)N(c3cccc(C(F)(F)F)c3)C2=O)cc1` [CFTRinh172], the “suppression in SP-333-stimulated Isc” value in the test with T84 cells monolayer (T84 cells, 10 μM inhibitor, vs 1 μM SP-333 alone) turned out to be 80%. Moreover, the “effect of inhibitor on SP-333-stimulated Isc” value in the test on rat jejunum tissue was “less compared to that detected in T84 cells”.
For `Nc1ncnc2c1nc(Sc1ccc(Cl)cc1)n2[C@@H]1O[C@@H]2COP(=O)(O)O[C@H]2[C@H]1O` [CPT-cAMP], the “stimulation of Isc across T84 cell monolayers” value in the test with T84 cells monolayer is recorded as “stimulate Isc”.
In the case of `Nc1nc2c(nc(Sc3ccc(Cl)cc3)n2[C@@H]2O[C@@H]3COP(=O)(O)O[C@H]3[C@H]2O)c(=O)[nH]1` [CPT-cGMP], in the test with T84 cells monolayer, the “stimulation of Isc across T84 cell monolayers” value is listed as “stimulate Isc”.
Consider `COC(=O)[C@@]1(OC)C[C@H]2O[C@]1(C)n1c3ccccc3c3c4c(c5c6ccccc6n2c5c31)C(=O)N(C)C4` [PKG-II inhibitor], for which, in the test on T84 cells monolayer (T84 cells, 4 μM inhibitor, 1 μM SP-333), the “suppression of relative SP-333-stimulated Isc” value is “approximately 35%”.
Take [dN]DECELCVNVACTGC[dL] (disulfide 4-12, 7-15) [SP-333]: the “EC50 of stimulation of Isc across T84 cells monolayer, apical treatment” value in test [6] amounted to 215 nM. Moreover, in test [7], the “EC50 of stimulation of Isc across rat jejunum tissue, apical treatment” value is 287 nM.
